From patent publication US20150065416A1, “NOVEL DRUG COMBINATION” (FAB PHARMA SAS, priority 2013, published 2015)
In brackets after ≈: the same amount, converted by molar mass. Read-outs that look alike come from different tables or passages of the source.

Key:
Type in all cases: cell-based, Acinetobacter baumannii
A. baumannii isolates [1] = test: Checkerboard testing (compound (I)/antibacterial agent interaction, FIC index); settings: Acinetobacter baumannii
Experimental: Checkerboard interaction studies were performed using 5 isolates from each of the sub-groups and time kill studies were performed using 3 isolates from each sub-group.
Checkerboards (20 isolates, 5 per sub-group) were prepared so as to contain multiple concentrations of compound (I) with different additional antibacterial agents (amikacin, gentamicin, colistin, meropenem and tobramycin) as follows:
Serial two-fold dilutions of the antimicrobial agents alone or in combination in wells of 96 well microtiter plates were inoculated with the appropriate inoculum so that each well contained approximately 4-5×10^4 CFU/ml. Plates were incubated at 35° C. for 16-20 hours. Combination concentrations were tested between 0.25×MIC and 2×MIC. Growth and sterility controls were also included in each plate.
Synergy, indifference and antagonism were calculated based upon the use of the fractional inhibitory concentration (FIC) indices as described by Pillai, Moellering & Eliopoulos (2005) whereby:
Synergism=FIC index of ≦0.5 Indifference=FIC index >1 but ≦4 Additivity >0.5 to 1 Antagonism=FIC index of >4
Checkerboard studies were carried out as described in General Procedures using twenty different A. baumannii isolates with 5 per sub-group of: susceptible, amikacin-resistant, colistin-resistant and meropenem-resistant.

[2] = test system: A. baumannii CIP 5377, CIP 7034, AYE, SAN, RCH; test: Antimicrobial susceptibility testing (MIC, broth microdilution, EUCAST; Example 5); settings: Acinetobacter baumannii, read-out: MIC
From the text: A. baumannii CIP 5377 (ATCC® 17978): low cephalosporinase producing strain, susceptible to meropenem and amikacin, isolated in an infected patient
A. baumannii CIP 7034: low cephalosporinase producing strain, susceptible to meropenem and amikacin A. baumannii AYE ATCC® BAA1710™: extended spectrum beta-lactamase producing strain susceptible to meropenem and resistant to amikacin
A. baumannii SAN-94040 (SAN): cephalosporinase-overproducing strain, susceptible to meropenem and intermediate to amikacin and resistant to fluoroquinolones, isolated from blood cultures of an intensive care patient with nosocomial pneumonia from North Africa (Algeria).
A. baumannii RCH-69: cephalosporinase producing strain; low susceptibility to imipenem and resistant to amikacin.

A. baumannii isolates [3] = test: Time kill study (Example 4); settings: for MIC: Acinetobacter baumannii, read-out: MIC; for Time to kill 99.9%: alone; for effect in time-kill studies when tested alone: alone at 1× or 4×MIC
Experimental: A total of 12 isolates were tested (three per sub-group either susceptible, meropenem-resistant, amikacin-resistant or colistin-resistant). Two combinations were tested per isolate. Time-kill kinetics were performed by testing compound (I) and an additional antibacterial agent (amikacin, colistin and meropenem) individually at 1× and 4× the corresponding MIC of each antibacterial agent. […] Samples were taken at 0, 2, 4, 8 and 24 hours in order to determine colony forming units (CFU/mL).
Time-kill studies were carried out as described in General Procedures using combinations of compound (I) with amikacin, meropenem and colistin, respectively.

[4] = A. baumannii 441142, colistin-resistant, read-out: MIC
[5] = A. baumannii 441160, colistin-resistant, read-out: MIC
[6] = A. baumannii 618649, meropenem-resistant, read-out: MIC
[7] = A. baumannii 625917, meropenem-resistant, read-out: MIC
[8] = A. baumannii 628760, susceptible, read-out: MIC
[9] = A. baumannii 637723, amikacin-resistant, read-out: MIC
[10] = A. baumannii 638115, amikacin-resistant, read-out: MIC
[11] = A. baumannii 650216, meropenem-resistant, read-out: MIC
[12] = A. baumannii 655932, amikacin-resistant, read-out: MIC
[13] = A. baumannii 661954, amikacin-resistant, read-out: MIC
[14] = A. baumannii 667848, meropenem-resistant, read-out: MIC
[15] = A. baumannii 668116, susceptible, read-out: MIC
[16] = A. baumannii 668239, amikacin-resistant, read-out: MIC
[17] = A. baumannii 670348, susceptible, read-out: MIC
[18] = A. baumannii 671050, meropenem-resistant, read-out: MIC
[19] = A. baumannii 672190, susceptible, read-out: MIC
[20] = A. baumannii 674340, susceptible, read-out: MIC

With `NCC[C@H](O)C(=O)N[C@@H]1C[C@H](N)[C@@H](O[C@H]2O[C@H](CN)[C@@H](O)[C@H](O)[C@H]2O)[C@H](O)[C@H]1O[C@H]1O[C@H](CO)[C@@H](O)[C@H](N)[C@H]1O` [amikacin] the MIC (A. baumannii isolates [1]; [4]) was > 1020 µg/mL, the MIC (A. baumannii isolates [1]; [5]) was > 1020 µg/mL and the MIC (A. baumannii isolates [1]; A. baumannii 463996, colistin-resistant, read-out: MIC) was 8 µg/mL. It also gave an MIC (A. baumannii isolates [1]; A. baumannii 466936, colistin-resistant, read-out: MIC) of 64 µg/mL, an MIC (A. baumannii isolates [1]; A. baumannii 517303, colistin-resistant) of 128 µg/mL and an MIC (A. baumannii isolates [1]; [6]) of 4 µg/mL. It also gave an MIC (A. baumannii isolates [1]; [7]) of 4 µg/mL, an MIC (A. baumannii isolates [1]; [8]) of 8 µg/mL and an MIC (A. baumannii isolates [1]; [9]) of 256 µg/mL. For the same compound, the MIC (A. baumannii isolates [1]; [10]) was 1020 µg/mL, the MIC (A. baumannii isolates [1]; [11]) was 4 µg/mL and the MIC (A. baumannii isolates [1]; [12]) was 512 µg/mL. The MIC (A. baumannii isolates [1]; [13]) was 512 µg/mL, the MIC (A. baumannii isolates [1]; [14]) was 4 µg/mL and the MIC (A. baumannii isolates [1]; [15]) was 2 µg/mL. The MIC (A. baumannii isolates [1]; [16]) was > 1020 µg/mL, the MIC (A. baumannii isolates [1]; [17]) was 8 µg/mL and the MIC (A. baumannii isolates [1]; [18]) was 8 µg/mL. The MIC (A. baumannii isolates [1]; [19]) was 4 µg/mL, the MIC (A. baumannii isolates [1]; [20]) was 4 µg/mL and the MIC ([2]; A. baumannii AYE) was 32 µg/mL (≈ 54.6 µM). The MIC ([2]; A. baumannii CIP 5377) was 2 µg/mL (≈ 3.42 µM), the MIC ([2]; A. baumannii CIP 7034) was 8 µg/mL (≈ 13.7 µM) and the MIC ([2]; A. baumannii RCH) was > 32 µg/mL. For the same compound, the MIC ([2]; A. baumannii SAN) was 4 µg/mL (≈ 6.83 µM), the MIC (A. baumannii isolates [3]; isolate MPM-R-1) was 4 µg/mL and the MIC (A. baumannii isolates [3]; isolate MPM-R-2) was 8 µg/mL. For the same compound, the MIC (A. baumannii isolates [3]; isolate MPM-R-3) was 4 µg/mL, the MIC (A. baumannii isolates [3]; isolate Sus-1) was 2 µg/mL and the MIC (A. baumannii isolates [3]; isolate Sus-2) was 4 µg/mL. The MIC (A. baumannii isolates [3]; isolate Sus-3) was 4 µg/mL, the “Time to kill 99.9%” value (A. baumannii isolates [3]; MPM-R-1, 1xMIC) was 1.4 h and the “Time to kill 99.9%” value (A. baumannii isolates [3]; MPM-R-1, 4xMIC) was 1.2 h. For the same compound, the “Time to kill 99.9%” value (A. baumannii isolates [3]; MPM-R-2, 1xMIC) was 1.3 h, the “Time to kill 99.9%” value (A. baumannii isolates [3]; MPM-R-2, 4xMIC) was 1.2 h and the “Time to kill 99.9%” value (A. baumannii isolates [3]; MPM-R-3, 1xMIC) was 1.4 h. For the same compound, the “Time to kill 99.9%” value (A. baumannii isolates [3]; MPM-R-3, 4xMIC) was 1.2 h, the “Time to kill 99.9%” value (A. baumannii isolates [3]; Sus-1, 1xMIC) was 1.7 h and the “Time to kill 99.9%” value (A. baumannii isolates [3]; Sus-1, 4xMIC) was 1.2 h. For the same compound, the “Time to kill 99.9%” value (A. baumannii isolates [3]; Sus-2, 4xMIC) was 1.2 h, the “Time to kill 99.9%” value (A. baumannii isolates [3]; Sus-3, 1xMIC) was 1.3 h and the “Time to kill 99.9%” value (A. baumannii isolates [3]; Sus-3, 4xMIC) was 1.3 h. For the same compound, the “effect in time-kill studies when tested alone” value (A. baumannii isolates [3]) was “generally bactericidal”.
`C[C@@H](O)[C@H]1C(=O)N2C(C(=O)O)=C(S[C@@H]3CN[C@H](C(=O)N(C)C)C3)[C@H](C)[C@H]12` [meropenem] showed an MIC (A. baumannii isolates [1]; [4]) of 64 µg/mL, an MIC (A. baumannii isolates [1]; [5]) of 64 µg/mL and an MIC (A. baumannii isolates [1]; A. baumannii 463996, colistin-resistant) of 0.125 µg/mL. For the same compound, the MIC (A. baumannii isolates [1]; A. baumannii 466936, colistin-resistant) was 128 µg/mL, the MIC (A. baumannii isolates [1]; A. baumannii 517303, colistin-resistant, read-out: MIC) was 1 µg/mL and the MIC (A. baumannii isolates [1]; [6]) was 64 µg/mL. It also gave an MIC (A. baumannii isolates [1]; [7]) of 64 µg/mL, an MIC (A. baumannii isolates [1]; [8]) of 0.25 µg/mL and an MIC (A. baumannii isolates [1]; [9]) of 1 µg/mL. It also gave an MIC (A. baumannii isolates [1]; [10]) of 2 µg/mL, an MIC (A. baumannii isolates [1]; [11]) of 64 µg/mL and an MIC (A. baumannii isolates [1]; [12]) of 16 µg/mL. It also gave an MIC (A. baumannii isolates [1]; [13]) of 1 µg/mL, an MIC (A. baumannii isolates [1]; [14]) of 32 µg/mL and an MIC (A. baumannii isolates [1]; [15]) of 0.5 µg/mL. For the same compound, the MIC (A. baumannii isolates [1]; [16]) was 16 µg/mL, the MIC (A. baumannii isolates [1]; [17]) was 0.5 µg/mL and the MIC (A. baumannii isolates [1]; [18]) was 32 µg/mL. For the same compound, the MIC (A. baumannii isolates [1]; [19]) was 0.5 µg/mL, the MIC (A. baumannii isolates [1]; [20]) was 0.5 µg/mL and the MIC ([2]; A. baumannii AYE) was 1 µg/mL (≈ 2.61 µM). It also gave an MIC ([2]; A. baumannii CIP 5377) of 0.25 µg/mL (≈ 0.652 µM), an MIC ([2]; A. baumannii CIP 7034) of 1 µg/mL (≈ 2.61 µM) and an MIC ([2]; A. baumannii RCH) of 32 µg/mL (≈ 83.4 µM). The MIC ([2]; A. baumannii SAN) was 1 µg/mL (≈ 2.61 µM), the “Time to kill 99.9%” value (A. baumannii isolates [3]; AMK-R-1, 1xMIC) was 5.2 h and the “Time to kill 99.9%” value (A. baumannii isolates [3]; AMK-R-1, 4xMIC) was 3.2 h. The “Time to kill 99.9%” value (A. baumannii isolates [3]; AMK-R-2, 1xMIC) was >24 h, the “Time to kill 99.9%” value (A. baumannii isolates [3]; AMK-R-2, 4xMIC) was 6.1 h and the “Time to kill 99.9%” value (A. baumannii isolates [3]; AMK-R-3, 1xMIC) was 3.6 h. For the same compound, the “Time to kill 99.9%” value (A. baumannii isolates [3]; AMK-R-3, 4xMIC) was 1.8 h, the MIC (A. baumannii isolates [3]; isolate AMK-R-1) was 4 µg/mL and the MIC (A. baumannii isolates [3]; isolate AMK-R-2) was 16 µg/mL. For the same compound, the MIC (A. baumannii isolates [3]; isolate AMK-R-3) was 16 µg/mL, the MIC (A. baumannii isolates [3]; isolate COL-R-1) was 64 µg/mL and the MIC (A. baumannii isolates [3]; isolate COL-R-2) was 0.25 µg/mL. For the same compound, the MIC (A. baumannii isolates [3]; isolate COL-R-3) was 16 µg/mL, the “Time to kill 99.9%” value (A. baumannii isolates [3]; COL-R-1, 1xMIC) was 3.6 h and the “Time to kill 99.9%” value (A. baumannii isolates [3]; COL-R-1, 4xMIC) was 3.6 h. For the same compound, the “Time to kill 99.9%” value (A. baumannii isolates [3]; COL-R-2, 1xMIC) was >24 h, the “Time to kill 99.9%” value (A. baumannii isolates [3]; COL-R-2, 4xMIC) was 5.8 h and the “Time to kill 99.9%” value (A. baumannii isolates [3]; COL-R-3, 1xMIC) was >24 h. The “Time to kill 99.9%” value (A. baumannii isolates [3]; COL-R-3, 4xMIC) was 3.2 h and the “effect in time-kill studies when tested alone” value (A. baumannii isolates [3]) was “generally bactericidal”.
